Measured values taken from ChEMBL document CHEMBL5728299, “Compounds and compositions for inhibiting the activity of SHP2” (2021).

Test: After 30-60 minutes incubation at 25° C., the surrogate substrate DiFMUP (Invitrogen, cat #D6567) was added to the reaction and incubated at 25° C. for 30 minutes. The reaction was then quenched by the addition of 5 μl of a 160 μM solution of bpV(Phen) (Enzo Life Sciences cat #ALX-270-204). The fluorescence signal was monitored using a microplate reader (Envision, Perki-Elmer) using excitation and emission wavelengths of 340 nm and 450 nm, respectively. The inhibitor dose response curves were analyzed using normalized IC50 regression curve fitting with control based normalization.

Structure (SMILES): CC1(CN)CCN(c2nnc(Sc3cccc(NC(=O)c4cnc5ccccn5c4=O)c3Cl)c(N)n2)CC1
- IC50: 173 nM
